From paper PMC7539012, “Hyperphosphorylated tau aggregation and cytotoxicity modulators screen identified prescription drugs linked to Alzheimer's disease and cognitive functions” (Scientific Reports, 2020)
Where a name gives a salt, the structure may show the parent alone.

What follows are compounds tested on T1, 1N4R p-tau (assay: p-tau aggregation modulator screen of 1280-compound library (ThS fluorescence net change over 16 h)). Settings: not given.
T1 construct: made in house; host or cells: E. coli (PIMAX system)
Assay type: biochemical
Design: key to PTAI>2SD: *: PTAI>2SD; key to PTAI>3SD: *: PTAI>3SD

Structure (SMILES)	ThS net change
COc1ccc([C@@H]2Sc3ccccc3N(CCN(C)C)C(=O)[C@@H]2OC(C)=O)cc1 [Diltiazem hydrochloride]	308
COc1cccc2c1C(=O)c1c(O)c3c(c(O)c1C2=O)C[C@@](O)(C(=O)CO)C[C@@H]3O[C@H]1C[C@H](N)[C@H](O)[C@H](C)O1 [Doxorubicin hydrochloride]	249

Same assay, conditions: 30 µM compound, 6 µM p-tau, 16 h

Structure (SMILES)	effect on p-tau aggregation in pilot screen
NCCc1ccc(O)c(O)c1 [Dopamine, reference compound]	none of them affected p-tau aggregation

Same assay, conditions: 1280-compound library screen; ThS fluorescence net change over 16 h

Structure (SMILES)	ThS net change
CC1(C)OC(=O)NC1=O [Dimethadione]	381
CCCCc1cc2ccccc2c(OCCN(C)C)n1 [Dimethisoquin hydrochloride]	394
CCCCC[C@H](O)/C=C/[C@@H]1[C@@H](C/C=C\CCCC(=O)O)[C@@H](O)C[C@H]1O [Dinoprost trometamol]	384
CN1CCC(OC(c2ccccc2)c2ccccc2)CC1 [Diphenylpyraline hydrochloride]	380
Cn1c(=O)c2c(ncn2CC(O)CO)n(C)c1=O (centres unmarked) [Diprophylline]	381
CN(CCOc1ccc(NS(C)(=O)=O)cc1)CCc1ccc(NS(C)(=O)=O)cc1 [Dofetilide]	388
O=c1[nH]c2ccccc2n1CCCN1CCC(n2c(=O)[nH]c3cc(Cl)ccc32)CC1 [Domperidone]	392
NCCc1ccc(O)c(O)c1 [Dopamine hydrochloride]	404
CCN(CC)CCOC(=O)C(c1ccccc1)C1CCCCC1 (centres unmarked) [Drofenine hydrochloride]	388
O=C(CCCN1CC=C(n2c(=O)[nH]c3ccccc32)CC1)c1ccc(F)cc1 [Droperidol]	412
CCCCOc1ccc(C(=O)CCN2CCCCC2)cc1 [Dyclonine hydrochloride]	406

Same assay, conditions: 1280-compound library screen; […]

Structure (SMILES)	ThS net change
C[C@H]1O[C@@H](O[C@H]2[C@@H](O)C[C@H](O[C@H]3[C@@H](O)C[C@H](O[C@H]4CC[C@@]5(C)[C@H](CC[C@@H]6[C@@H]5C[C@@H](O)[C@]5(C)[C@@H](C7=CC(=O)OC7)CC[C@]65O)C4)O[C@@H]3C)O[C@@H]2C)C[C@H](O)[C@@H]1O [Digoxin]	404

Same assay, conditions: flag: p-tau aggregation inhibitor, ThS net change more than 2 SD from mean

Structure (SMILES)	PTAI>2SD
C[C@H]1c2cccc(O)c2C(=O)C2=C(O)[C@]3(O)C(=O)C(C(N)=O)=C(O)[C@@H](N(C)C)[C@@H]3[C@@H](O)[C@@H]21 [Doxycycline hydrochloride]	*

Same assay, conditions: flag: p-tau aggregation inhibitor, ThS net change more than 3 SD from mean

Structure (SMILES)	PTAI>3SD
OCCN(CCO)c1nc(N2CCCCC2)c2nc(N(CCO)CCO)nc(N3CCCCC3)c2n1 [Dipyridamole]	*

Same assay, conditions: library screen, ThS fluorescence net change over 16 h with p-tau

Structure (SMILES)	ThS net change
COc1cc(C(=O)OCCCN2CCCN(CCCOC(=O)c3cc(OC)c(OC)c(OC)c3)CC2)cc(OC)c1OC.Cl.Cl [Dilazep dihydrochloride]	286
COc1ccc(-c2cc(=O)c3c(O)cc(O[C@@H]4O[C@H](CO[C@@H]5O[C@@H](C)[C@H](O)[C@@H](O)[C@H]5O)[C@@H](O)[C@H](O)[C@H]4O)cc3o2)cc1O [Diosmin]	211
COc1ccc(C(=O)c2ccccc2O)c(O)c1 [Dioxybenzone]	296
OCCN(CCO)c1nc(N2CCCCC2)c2nc(N(CCO)CCO)nc(N3CCCCC3)c2n1 [Dipyridamole]	-5843
CC(CCc1ccc(O)cc1)NCCc1ccc(O)c(O)c1 (centres unmarked) [Dobutamine hydrochloride]	257
CN(C)CC/C=C1\c2ccccc2CSc2ccccc21 [Dosulepin hydrochloride]	311
COc1cc2nc(N3CCN(C(=O)C4COc5ccccc5O4)CC3)nc(N)c2cc1OC (centres unmarked) [Doxazosin mesylate]	310
C[C@H]1c2cccc(O)c2C(=O)C2=C(O)[C@]3(O)C(=O)C(C(N)=O)=C(O)[C@@H](N(C)C)[C@@H]3[C@@H](O)[C@@H]21 [Doxycycline hydrochloride]	174

Same assay, conditions: p-tau aggregation modulator screen of 1280-compound library; ThS fluorescence net change

Structure (SMILES)	ThS net change
CN[C@@H]1[C@H](O[C@H]2[C@H](O[C@H]3[C@H](O)[C@@H](O)[C@H](NC(=N)N)[C@@H](O)[C@@H]3NC(=N)N)O[C@@H](C)[C@]2(O)CO)O[C@@H](CO)[C@H](O)[C@H]1O [Dihydrostreptomycin sulfate]	331
CN(C(=O)C(Cl)Cl)c1ccc(OC(=O)c2ccco2)cc1 [Diloxanide furoate]	371
CN(C)CCOC(c1ccccc1)c1ccccc1.Cn1c(=O)c2[nH]c(Cl)nc2n(C)c1=O [Dimenhydrinate]	345
O=C(Nc1ccccc1)OCC(CN1CCCCC1)OC(=O)Nc1ccccc1 (centres unmarked) [Diperodon hydrochloride]	347
C[N+]1(C)CCC(=C(c2ccccc2)c2ccccc2)CC1 [Diphemanil methylsulfate]	350
CN(C)CCOC(c1ccccc1)c1ccccc1 [Diphenhydramine hydrochloride]	335
OC(CCCN1CCCCC1)(c1ccccc1)c1ccccc1 [Diphenidol hydrochloride]	345
CNCC(O)c1ccc(OC(=O)C(C)(C)C)c(OC(=O)C(C)(C)C)c1 (centres unmarked) [Dipivefrin hydrochloride]	357
Cc1c(N(C)CS(=O)(=O)[O-])c(=O)n(-c2ccccc2)n1C.[Na+] [Dipyrone]	363
CC(C)N(CCC(C(N)=O)(c1ccccc1)c1ccccn1)C(C)C (centres unmarked) [Disopyramide]	377
CCN(CC)C(=S)SSC(=S)N(CC)CC [Disulfiram]	339
CN(C)CCC=C1c2ccccc2COc2ccccc21 [Doxepin hydrochloride]	341
CN(C)CCOC(C)(c1ccccc1)c1ccccn1 (centres unmarked) [Doxylamine succinate]	367
CC(=O)[C@H]1CC[C@H]2[C@@H]3C=CC4=CC(=O)CC[C@@]4(C)[C@@H]3CC[C@]12C [Dydrogesterone]	371
O=c1c2ccccc2[se]n1-c1ccccc1 [Ebselen]	348

Same assay, conditions: p-tau aggregation modulator screen of 1280-compound library; […]

Structure (SMILES)	ThS net change
CN1C[C@H](C(=O)N[C@]2(C)O[C@@]3(O)[C@@H]4CCCN4C(=O)[C@H](Cc4ccccc4)N3C2=O)CC2c3cccc4[nH]cc(c34)C[C@H]21.CN1C[C@H](C(=O)N[C@]2(C)O[C@@]3(O)[C@@H]4CCCN4C(=O)[C@H](Cc4ccccc4)N3C2=O)C[C@@H]2c3cccc4[nH]cc(c34)C[C@H]21.O=C(O)C(O)C(O)C(=O)O (some centres unmarked) [Dihydroergotamine tartrate]	342
C[C@]12N[C@H](Cc3ccccc31)c1ccccc12 [Dizocilpine maleate]	349
CS(=O)(=O)O.O.O=C(O[C@@H]1C[C@@H]2C[C@@H]3C[C@H](C1)N2CC3=O)c1c[nH]c2ccccc12 [Dolasetron mesilate]	353

Same assay, conditions: p-tau aggregation modulator screen of the compound library, ThS fluorescence net change

Structure (SMILES)	ThS net change
CN(C)CCCSC(=N)N.Cl.Cl [Dimaprit dihydrochloride]	436
CC[C@H]1OC(=O)[C@H](C)[C@@H](O[C@H]2C[C@@](C)(OC)[C@@H](O)[C@H](C)O2)[C@H](C)[C@@H](O[C@@H]2O[C@H](C)C[C@H](N(C)C)[C@H]2O)[C@](C)(O)C[C@@H](C)[C@@H]2N[C@@H](COCCOC)O[C@H]([C@H]2C)[C@]1(C)O [Dirithromycin]	418
CC(=O)O[C@@]12CO[C@@H]1C[C@H](O)[C@@]1(C)C(=O)[C@H](O)C3=C(C)[C@@H](OC(=O)[C@H](O)[C@@H](NC(=O)OC(C)(C)C)c4ccccc4)C[C@@](O)([C@@H](OC(=O)c4ccccc4)[C@H]21)C3(C)C [Docetaxel]	542
COc1cc2c(cc1OC)C(=O)C(CC1CCN(Cc3ccccc3)CC1)C2 (centres unmarked) [Donepezil hydrochloride]	435
CCN[C@H]1C[C@H](C)S(=O)(=O)c2sc(S(N)(=O)=O)cc21 [Dorzolamide hydrochloride]	463
CCN1CC(CCN2CCOCC2)C(c2ccccc2)(c2ccccc2)C1=O.Cl (centres unmarked) [Doxapram hydrochloride]	418
Cn1c(=O)c2c(ncn2CC2OCCO2)n(C)c1=O [Doxofylline]	451
